Source: US6593343B2, “Quinoline derivatives” (Active Biotech AB, priority 1998, dated 2003)

What was measured:
fetuses of female rats [1] = experiment: Teratogenic effects in the rat; type: in vivo
[2] = e.g. a flu-like syndrome; cited from earlier work
fetuses of female rats [3] = conditions: rat, background statement; cited from earlier work
beagle dogs = experiment: Beagle Pain Syndrome (BPS); type: in vivo, dog
Experimental: Beagle Pain Syndrome (BPS)
The compounds were administrated intravenously to beagle dogs. The dosage was given for five consecutive days. The dogs were evaluated for clinical and laboratory signs of the pain syndrome, e.g. fever, increased erythrocyte sedimentation rate (ESR), alkaline phosphate (AP), induction of acute phase proteins and vasculitis.

[4] = test system: acute experimental autoimmune encephalomyelitis (aEAE); experiment: Acute experimental autoimmune encephalomyelitis (aEAE) inhibition; type: in vivo; conditions: at ≧5 mg/kg, mice, treatment control

Compound | % malformed fetuses (fetuses of female rats [1]; 6 mg/kg p.o.) | % malformed fetuses (fetuses of female rats [1]; 30 mg/kg p.o.) | side effects in man (in words) [2] | teratogenicity (in words) (fetuses of female rats [3]) | % malformed fetuses (fetuses of female rats [1]; 10 mg/kg p.o.) | Beagle Pain Syndrome (in words) (beagle dogs) | inhibition of aEAE [4]
CN(C(=O)c1c(O)c2c(Cl)cccc2n(C)c1=O)c1ccc(F)cc1F [Compound B, N-methyl-N-(2,4-difluoro-phenyl)-1,2-dihydro-4-hydroxy-5-chloro-1-methyl-2-oxo-quinoline-3-carboxamide] | 0% | – | – | – | – | – | –
COc1cccc2c1c(O)c(C(=O)N(C)c1ccc(C(F)(F)F)cc1)c(=O)n2C [Compound A, N-methyl-N-(4-trifluoromethyl-phenyl)-1,2-dihydro-4-hydroxy-5-methoxy-1-methyl-2-oxo-quinoline-3-carboxamide] | 4% | 2% | – | – | – | – | –
CN(C(=O)c1c(O)c2ccccc2n(C)c1=O)c1ccccc1 [Compound D, N-phenyl-N-methyl-1,2-dihydro-4-hydroxy-1-methyl-2-oxo-quinoline-3-carboxamide] | – | 30% | dose-limiting side effects | teratogenic in the rat | 9% | induce the Beagle Pain Syndrome | more than 50%
CN(C(=O)c1c(O)c2c(Cl)cccc2n(C)c1=O)c1ccccc1 [Compound C, N-Methyl-N-phenyl-1,2-dihydro-4-hydroxy-5-chloro-1-methyl-2-oxo-quinoline-3-carboxamide] | 37% | – | – | – | – | – | –
